In patent US6685951B2, “Administration of dihydroergotamine as a sublingual spray or aerosol for the treatment of migraine” (R. T. Alamo Ventures I, Inc., priority 2001, dated 2004):

Key:
[1] = Example 6: two-way crossover, DHE tablet under the tongue vs orally with water; format: in vivo, healthy normal volunteers; details: tablet under the tongue vs orally with about 240 ml water; blood over 24 hour
Protocol: Each volunteer is administered DHE sublingual tablet manufactured as defined in this patent. In one treatment the tablet is administered under the tongue and in the crossover treatment the subject is administered the tablet orally with about 240 ml of water. Blood samples are taken serially over a 24 hour duration post administration and assayed for unchanged DHE and the principle 8-hydroxy DHE metabolite.

migraine symptoms [2] = test: Example 2: sublingual DHE vs placebo in patients suffering from migraines; format: in vivo; details: 1 mg sublingual DHE
Protocol: This experiment utilizes two test groups of patients. All of the patients are suffering from migraines. One group receives a 1 mg dose of sublingual DHE, the other group receives a placebo. The DHE sublingual formulation is placed by the patients or medical professional under the tongue. The DHE sublingual formulation is allowed to dissolve fully. If the symptoms are not relieved within 20 to 40 minutes, a second dose is administered. Results are compared between the test group and the placebo group. […] The difference in amelioration of migraine symptoms are statistically significant.

[3] = Mortality/moribundity checks and cageside observation after sublingual DHE; format: in vivo, Cynomogolius monkey; details: sublingual 0.5 mL of 1.0 mg/mL; throughout the study
Protocol: (§1) Prior to dose administration, the animal was restrained and anesthetized with an appropriate amount of ketamine. Using a calibrated pipette, 0.5 mL of dosing solution was placed under the animal's tongue immediately after swabbing excess saliva with a gauze pad (the gauze pad will be discarded). The animal's head was restrained for approximately 5 minutes in such a manner to minimize any loss of the dose solution through the animal's mouth or down the animal's throat.
Mortality and moribundity checks were done twice daily (a.m. and p.m.). Cageside observation for general health and appearance was done once daily.

migraine symptoms [4] = test: Example 3: sublingual DHE tablet vs subcutaneous injection of DHE in migraine patients; format: in vivo; details: 1 mg sublingual tablet vs 1 mg subcutaneous injection
Protocol: This example compares the effect on migraine of subcutaneous injection vs. the sublingual administration of the present invention.
This experiment utilizes three test groups of patients. All of the patients are suffering from migraines. One group receives a 1 mg dose of sublingual DHE tablet and a placebo subcutaneous injection, the second group receives a 1 mg subcutaneous injection of a pharmaceutical formulation comprising DHE and a placebo sublingual tablet, and the third group receives a placebo subcutaneous injection and a placebo sublingual tablet. Results are compared between the active sublingual test group and the active subcutaneous test group.

[5] = Plasma DHE after sublingual administration of DHE 45 dosing solution in a monkey; format: in vivo, Cynomogolius monkey
Protocol: In this example the intrinsic permeability of DHE was shown after it was sublingually administered DHE in a Cynomogolius monkey.
The test DHE was obtained from as DHE 45® Injection, USP (manufactured by Novartis). Specific information follows.
as §1
Blood (approximately 1 mL) was collected from each animal prior to dosing (predose) and at 0.1, 0.2, 0.3, 0.4, 0.5, 1, 2, 4, 8, and 12 hours postdose. Blood was collected via a femoral vein into sodium-heparinized tubes.
Blood was maintained on wet ice, in chilled Kryoracks, or at approximately 5° C. prior to centrifugation to obtain plasma. Centrifugation was begin within 30 minutes of collection. The blood samples were centrifuged at approximately 5° C. for approximately 10 minutes at approximately 4,000 rpm. Plasma was harvested and stored on dry ice or at approximately −70° C. prior to shipment.
The plasma was assayed for DHE using standard techniques.

migraine symptoms [6] = test: Example 4: sublingual DHE vs nasal administration of DHE in migraine patients; format: in vivo; details: 2 mg sublingual vs 2 mg nasally administered
Protocol: This example compares the effect on migraine of nasal administration of DHE vs. the sublingual administration of the present invention.
This experiment utilizes three test groups of patients. All of the patients are suffering from migraines. One group receives a 2 mg dose of sublingual DHE and placebo intranasal spray, the second group receives a 2 mg nasally administered dose of a pharmaceutical formulation comprising DHE and a placebo sublingual tablet, the third group receives a placebo sublingual tablet and a placebo intranasal spray. Results are compared between the active sublingual test group and the active nasal test group.

[7] = Example 5: plasma uptake of DHE, sublingual tablet vs subcutaneous administration; format: in vivo, patient; details: plasma monitored 24 hours
Protocol: This example evaluates the uptake in sublingual vs. subcutaneous administration of DHE.
In this experiment one patient suffering from migraine pain is administered a migraine ameliorating dose of DHE as a sublingual tablet formulated as described in Example 1. The plasma concentration of DHE is monitored for a time of 24 hours after the administration. […] The rate and amount of DHE in the plasma is compared to that obtained by subcutaneous administration.

[8] = oral forms of DHE; cited from earlier work
migraine = details: in vivo; cited from earlier work

| Structure (SMILES) | levels of active DHE, sublingual higher than oral [1] | amelioration of migraine symptoms compared to placebo control group (migraine symptoms [2]) | observations for general health and appearance, mortality and moribundity [3] | amelioration of migraine symptoms, sublingual vs subcutaneous group (migraine symptoms [4]) | half-life ([5]; cynomolgus, monkey, in vivo) [min] | Tmax ([5]; cynomolgus, monkey, in vivo, 0.5 mg, plasma, sublingual 0.5 mL of 1.0 mg/mL, read-out: Tmax (time point of maximum concentration) (converted)) [min] | detection of DHE in the blood plasma after sublingual administration ([5]; sublingual) | amelioration of migraine symptoms, sublingual vs nasal group (migraine symptoms [6]) | time to maximum plasma concentration of DHE [7] [min] | active unchanged drug that reaches the blood stream [8] | efficacy in the treatment of migraine (migraine) |
| --- | --- | --- | --- | --- | --- | --- | --- | --- | --- | --- | --- |
| CN1C[C@H](C(=O)N[C@]2(C)O[C@@]3(O)[C@@H]4CCCN4C(=O)[C@H](Cc4ccccc4)N3C2=O)C[C@@H]2c3cccc4[nH]cc(c34)C[C@H]21 [DHE, Dihydroergotamine] | at least 200% | greater amelioration of migraine symptoms | No unusual observations | equivalent amelioration of migraine symptoms | 132 | 5 | rapid detection of DHE in the blood plasma | equivalent amelioration of migraine symptoms | 30 to 60 | 2-10% | – |
| CN(C)CCc1c[nH]c2ccc(Cn3cncn3)cc12 [rizatriptan] | – | – | – | – | – | – | – | – | – | – | 60-70% |
